biological target: α-Glucosidase (EC.3.2.1.20); assay: α-Glucosidase inhibition assay (p-nitrophenyl-α-D-glucopyranoside substrate, absorbance at 405 nm); format: biochemical; settings: in vitro; pH 6.8 phosphate buffer, 37 °C, 15 min; acarbose positive control; read-out: IC50 (mM ± SEM, mM), α-glucosidase inhibitory activity
Protocol: Open column chromatography (CC) was carried out using silica gel (200-300 mesh, Qingdao Marine Chemical Co., Qingdao, China) or octadecyl silica gel (ODS, 25-40 μm, Fuji) as stationary phases. TLC employed precoated silica gel plates (5-7 μm, Qingdao Marine). Preparative HPLC was carried out on a Waters 600 instument equipped with a Waters UV-2487 detector. A Waters Sunfire prep C18 OBD (19 × 250 mm i.d.) column was used for this purpose. The IR spectra were recorded as KBr pellets on a Jasco 302-A spectrometer. Optical rotation was recorded on a Jasco P-2000 polarimeter. HRESIMS were measured on a FTMS-7 instrument (Bruker Daltonics). Melting points were determined on a Gallenkemp apparatus and are uncorrected. The ^1H-, ^13C- and 2D (^1H-^1H COSY, HSQC, HMBC, NOESY) NMR spectra were recorded on a Bruker AMX-400 spectrometer using standard pulse sequences. Chemical shifts are reported in ppm (δ), and scalar coupling are reported in Hz. GC analyses were carried out using a Fuli 9790 instrument equipped with a DM-5 column (0.25 μm, 30 m × 0.25 mm, Dikma, China). α-Glucosidase (EC.3.2.1.20) from Saccharomyces sp. was purchased from Wako Pure Chemical Indutries Ltd. (Wako 076-02841). Other reagents were purchased from various commercial sources.
α-Glucosidase (EC.3.2.1.20) enzyme inhibition assay has been performed according to the literature. α-Glucosidase (25 μL, 0.2 U/mL), various concentrations of samples (25 μL), and 67 mM phosphate buffer (pH 6.8, 175 μL) were mixed at room temperature for 10 min. Reactions were initiated by the addition of 23.2 mM p-nitrophenyl-α-D-glucopyranoside (25 μL). The reaction mixtures were incubated at 37 °C for 15 min in a final volume of 250 μL, and then 1 M Na2CO3 (50 μL) was added to the incubation solution to stop the reaction. The activities of glucosidase were detected in a 96-well plate, and the absorbance was read at 405 nm by a microplate spectrophotometer (Spectra Max, Molecular Devices, USA). The negative control was prepared by adding phosphate buffer instead of the sample in the same way as the test. […] The blank was prepared by adding phosphate buffer instead of α-glucosidase using the same method. The inhibition rates (%) were calculated from the following formula:
[(ODnegative control− ODblank) − (ODtest− ODtest blank)] / ([…]− ODblank) × 100%

Row | Structure (SMILES) | IC50 [mM]
1 | CC1(C)CCC2(C(=O)OC3OC(CO)C(O)C(O)C3O)CCC3(C)C(=CCC4C5(C)CC(=O)C(O)C(C)(C)C5CCC43C)C2C1O [Compound 1, 2-oxo-3β,19α-dihydroxyolean-12-en-28-oic acid β-D-gluco-pyranosyl ester] | 1.88 ± 0.28
2 | C[C@@H]1CC[C@]2(C(=O)O)CC[C@]3(C)C(=CCC4[C@@]5(C)CC(=O)[C@H](O)C(C)(C)C5CC[C@]43C)C2[C@@]1(C)O (some centres unmarked) [Compound 2, 2-oxopomolic acid] | 1.35 ± 0.04
3 | C[C@@H]1CC[C@]2(C(=O)O[C@@H]3O[C@H](CO)[C@@H](O)[C@H](O)[C@H]3O)CC[C@]3(C)C(=CCC4[C@@]5(C)CC(=O)[C@H](O)C(C)(C)C5CC[C@]43C)C2[C@@]1(C)O (stereo partly drawn) [Compound 3, 2-oxopomolic acid β-D-glucopyranoside] | 2.22 ± 0.06
4 | CC1CCC2(C(=O)OC3OC(CO)C(O)C(O)C3O)CCC3(C)C(=CCC4C5(C)CC(O)C(=O)C(C)(C)C5CCC43C)C2C1(C)O [Compound 4, 2α,19α-dihydroxy-3-oxo-12-ursen-28-oic acid β-D-glucopyranosyl ester] | 1.56 ± 0.04
5 | C[C@@H]1CC[C@]2(C(=O)O)CC[C@]3(C)C(=CCC4[C@@]5(C)C[C@@H](O)C(=O)C(C)(C)C5CC[C@]43C)C2[C@@]1(C)O (stereo partly drawn) [Compound 5, 2α,19α-dihydroxy-3-oxo-12-ursen-28-oic acid] | 1.23 ± 0.09
6 | CC1(C)C(=O)[C@H](O)C[C@@]2(C)C1CC[C@]1(C)C2CC=C2C3[C@@H](O)C(C)(C)CC[C@]3(C(=O)O[C@@H]3O[C@H](CO)[C@@H](O)[C@H](O)[C@H]3O)CC[C@]21C (stereo partly drawn) [Compound 6, 2α,19α-dihydroxy-3-oxo-olean-12-en-28-oic acid β-D-glucopyranosyl ester] | 2.01 ± 0.06
7 | C[C@@H]1CC[C@]2(C(=O)O[C@@H]3O[C@H](CO)[C@@H](O)[C@H](O)[C@H]3O)CC[C@]3(C)C(=CCC4[C@@]5(C)C[C@@H](O)[C@H](O)C(C)(C)C5CC[C@]43C)C2[C@@]1(C)O (some centres unmarked) [Compound 7, rosamutin] | 3.28 ± 0.08
8 | C[C@@H]1CC[C@]2(C(=O)O)CC[C@]3(C)C(=CC[C@@H]4[C@@]5(C)C[C@@H](O)[C@@H](O)C(C)(C)[C@@H]5CC[C@]43C)[C@@H]2[C@]1(C)O [Compound 8, euscaphic acid] | 0.67 ± 0.09
9 | CC1(C)CC[C@]2(C(=O)O[C@@H]3O[C@H](CO)[C@@H](O)[C@H](O)[C@H]3O)CC[C@]3(C)C(=CCC4[C@@]5(C)C[C@@H](O)[C@H](O)C(C)(C)C5CC[C@]43C)C2[C@H]1O (some centres unmarked) [Compound 10, 24-deoxysericoside] | 3.52 ± 0.16

Continued, values first:

Row | IC50 [mM] | Structure (SMILES)
10 | 3.1 ± 0.24 | C[C@@H]1CC[C@]2(C(=O)O[C@@H]3O[C@H](CO)[C@@H](O)[C@H](O)[C@H]3O)CC[C@]3(C)C(=CCC4[C@@]5(C)C[C@@H](O)[C@@H](O)C(C)(C)C5CC[C@]43C)C2[C@@]1(C)O (some centres unmarked) [Compound 9, kaji-ichigoside Fl]
11 | 0.62 ± 0.06 | C[C@@H]1CC[C@]2(C(=O)O)CC[C@]3(C)C(=CCC4[C@@]5(C)CC[C@H](OC(=O)C=Cc6ccc(O)cc6)C(C)(C)C5CC[C@]43C)C2[C@@H]1C (some centres unmarked) [Compound 12, p-coumaroylursolic acid]
12 | 3.62 ± 0.21 | CC1CCC2(C(=O)OC3OC(CO)C(O)C(O)C3O)CCC3(C)C(=CCC4C5(C)CCC(OC6OCC(O)C(O)C6O)C(C)(C)C5CCC43C)C2C1(C)O (centres unmarked) [Compound 13, ziyu-glycoside I]
13 | 2.87 ± 0.06 | C=C1C(C)CCC2(C(=O)OC3OC(CO)C(O)C(O)C3O)CCC3(C)C(=CCC4C5(C)CCC(OC6OCC(O)C(O)C6O)C(C)(C)C5CCC43C)C12 [Compound 14, 3β-[(α-L-arabinopyranosyl)oxy] urs-12,19(29)-dien-28-oic acid 28-β-D-glucopyranosyl ester]
14 | 1.84 ± 0.12 | C[C@@H]1CC[C@]2(C(=O)O)CC[C@]3(C)C(=CC[C@@H]4[C@@]5(C)CC[C@H](O)C(C)(C)[C@@H]5CC[C@]43C)[C@@H]2[C@]1(C)O [Compound 15, pomolic acid]
